Structures can show the parent of a compound that is named as a salt. Where two headings read alike, the source gives them in different places.
Columns and labels:
DNMT1 = DNMT1 (Homo sapiens, UniProt P26358); test: DNMT1 biochemical activity, breaklight assay and/or SPA assay
[1] = tested on: erythroid progenitor cells (EPCs); test: Fetal hemoglobin (HbF) ELISA in day 7 erythroid progenitor cells; type: cell-based, human; details: Homo sapiens, Erythroid progenitor cell, HbF ELISA, day 7 EPCs, 5 days; read-out: EPC ELISA (pEC50 category) (converted);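 further: for fetal hemoglobin induction normalized to vehicle-treated cells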
In short: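 Read-out was OD450 from an HRP/TMB sandwich ELISA on lysates, normalized to DMSO-only control wells. Thawed day 7 EPCs from human marrow CD34+ cells had been treated for 5 days at 37° C with Compound A, 22 concentrations […].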

[2] = binned activity in either the breaklight or the SPA assay

Sequence of DNMT1 (P26358 whole entry, looked up): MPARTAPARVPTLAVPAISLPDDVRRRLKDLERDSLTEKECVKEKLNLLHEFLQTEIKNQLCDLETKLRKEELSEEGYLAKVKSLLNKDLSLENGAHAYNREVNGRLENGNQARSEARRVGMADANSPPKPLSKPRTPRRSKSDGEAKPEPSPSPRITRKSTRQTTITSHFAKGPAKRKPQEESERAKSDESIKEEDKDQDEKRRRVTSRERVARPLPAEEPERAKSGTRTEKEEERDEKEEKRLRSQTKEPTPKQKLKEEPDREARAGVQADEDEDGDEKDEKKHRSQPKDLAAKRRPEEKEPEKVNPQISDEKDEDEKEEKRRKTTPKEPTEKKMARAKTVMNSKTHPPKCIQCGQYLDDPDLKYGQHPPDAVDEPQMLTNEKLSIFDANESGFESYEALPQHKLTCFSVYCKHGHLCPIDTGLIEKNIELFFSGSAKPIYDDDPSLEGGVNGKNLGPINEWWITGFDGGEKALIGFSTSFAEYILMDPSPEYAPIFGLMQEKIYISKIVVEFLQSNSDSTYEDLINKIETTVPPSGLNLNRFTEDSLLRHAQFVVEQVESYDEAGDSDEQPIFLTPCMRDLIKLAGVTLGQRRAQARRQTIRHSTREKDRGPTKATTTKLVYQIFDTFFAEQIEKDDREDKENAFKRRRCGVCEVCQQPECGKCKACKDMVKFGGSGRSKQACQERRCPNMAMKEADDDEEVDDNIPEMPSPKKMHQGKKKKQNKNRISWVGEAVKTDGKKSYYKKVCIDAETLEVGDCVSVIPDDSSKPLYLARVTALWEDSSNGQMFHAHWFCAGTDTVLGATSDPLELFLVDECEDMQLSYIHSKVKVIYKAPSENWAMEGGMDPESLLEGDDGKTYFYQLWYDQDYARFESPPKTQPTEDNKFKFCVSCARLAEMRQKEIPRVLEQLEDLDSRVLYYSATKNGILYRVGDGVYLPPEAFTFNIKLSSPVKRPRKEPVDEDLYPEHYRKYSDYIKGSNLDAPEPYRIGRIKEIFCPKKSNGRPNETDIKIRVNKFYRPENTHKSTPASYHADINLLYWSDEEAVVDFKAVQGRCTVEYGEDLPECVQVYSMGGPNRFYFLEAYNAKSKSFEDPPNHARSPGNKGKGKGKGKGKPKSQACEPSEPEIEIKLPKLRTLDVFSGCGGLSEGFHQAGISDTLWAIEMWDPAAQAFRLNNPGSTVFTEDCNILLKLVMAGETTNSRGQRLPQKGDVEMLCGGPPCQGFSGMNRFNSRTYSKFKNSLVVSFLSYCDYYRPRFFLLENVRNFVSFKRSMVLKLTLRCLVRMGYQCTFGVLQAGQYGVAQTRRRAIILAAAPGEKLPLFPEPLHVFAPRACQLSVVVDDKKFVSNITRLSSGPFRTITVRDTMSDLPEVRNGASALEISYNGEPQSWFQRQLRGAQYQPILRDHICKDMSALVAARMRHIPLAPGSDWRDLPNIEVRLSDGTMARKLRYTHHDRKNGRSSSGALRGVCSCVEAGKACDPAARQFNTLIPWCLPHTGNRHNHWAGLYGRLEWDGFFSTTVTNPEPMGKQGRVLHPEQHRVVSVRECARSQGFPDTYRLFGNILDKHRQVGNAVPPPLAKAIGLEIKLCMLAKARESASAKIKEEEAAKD

Compound	DNMT1 BioChemical (pIC50 category) (DNMT1; [2])	EC50 [1]	IC50 (DNMT1; binned activity in either the breaklight or the SPA assay, read-out: DNMT1 BioChemical (pIC50 category) (converted))	average pIC50 against DNMT1 (DNMT1; breaklight assay and/or SPA assay, repeated experimental runs)	IC50 (DNMT1; breaklight assay and/or SPA assay, repeated experimental runs, read-out: average pIC50 against DNMT1 (converted))
CCc1c(C#N)c(SC(C(N)=O)c2ccc(F)cc2)nc(N2CC[C@H](N(C)C)C2)c1C#N (stereo partly drawn) [Example 544, 2-((3,5-dicyano-6-((S)-3-(dimethylamino)pyrrolidin-1-yl)-4-ethylpyridin-2-yl)thio)-2-(4-fluorophenyl)acetamide]	D (Category D: ≥6.5)	1000 to 31600 nM	–	–	–
CCc1c(C#N)c(SC(C(N)=O)c2ccccc2)nc(N2CCC(NC)CC2)c1C#N (centres unmarked) [Example 547, 2-((3,5-dicyano-4-ethyl-6-(4-(methylamino)piperidin-1-yl)pyridin-2-yl)thio)-2-phenylacetamide]	D (Category D: ≥6.5)	< 316 nM	–	–	–
CCc1c(C#N)c(SC(C(N)=O)c2ccccc2)nc(N2CCC(N(C)C)CC2)c1C#N (centres unmarked) [Example 548, 2-((3,5-dicyano-6-(4-(dimethylamino)piperidin-1-yl)-4-ethylpyridin-2-yl)thio)-2-phenylacetamide]	D (Category D: ≥6.5)	< 316 nM	–	–	–
CCc1c(C#N)c(SC(C(N)=O)c2ccccc2)nc(N2CCC(N(C)CC)CC2)c1C#N (centres unmarked) [Example 549, 2-((3,5-dicyano-4-ethyl-6-(4-(ethyl(methyl)amino)piperidin-1-yl)pyridin-2-yl)thio)-2-phenylacetamide]	D (Category D: ≥6.5)	< 316 nM	–	–	–
CCc1c(C#N)c(SC(C(N)=O)c2ccccc2)nc(N2CCC(NCC(C)(C)C)CC2)c1C#N (centres unmarked) [Example 550, 2-((3,5-dicyano-4-ethyl-6-(4-(neopentylamino)piperidin-1-yl)pyridin-2-yl)thio)-2-phenylacetamide]	D (Category D: ≥6.5)	< 316 nM	–	–	–
CCc1c(C#N)c(SC(C(N)=O)c2ccccc2)nc(N2CCC(N(C)CC(C)(C)C)CC2)c1C#N (centres unmarked) [Example 551, 2-((3,5-dicyano-4-ethyl-6-(4-(methyl(neopentyl)amino)piperidin-1-yl)pyridin-2-yl)thio)-2-phenylacetamide]	D (Category D: ≥6.5)	< 316 nM	–	–	–
CCc1c(C#N)c(SC(C(N)=O)c2ccccc2)nc(N2CCC(NC3CC3)CC2)c1C#N (centres unmarked) [Example 552, 2-((3,5-dicyano-6-(4-(cyclopropylamino)piperidin-1-yl)-4-ethylpyridin-2-yl)thio)-2-phenylacetamide]	D (Category D: ≥6.5)	< 316 nM	–	–	–
CCc1c(C#N)c(SC(C(N)=O)c2ccccc2)nc(N2CCC(NCC(F)F)CC2)c1C#N (centres unmarked) [Example 554, 2-((3,5-dicyano-6-(4-((2,2-difluoroethyl)amino)piperidin-1-yl)-4-ethylpyridin-2-yl)thio)-2-phenylacetamide]	D (Category D: ≥6.5)	< 316 nM	–	–	–
CCc1c(C#N)c(S[C@@H](C(N)=O)c2ccccc2)nc(N2CCO[C@H](CN)C2)c1C#N [Example 561, (R)-2-((6-((R)-2-(aminomethyl)morpholino)-3,5-dicyano-4-ethylpyridin-2-yl)thio)-2-phenylacetamide, Hydrochloride]	D (Category D: ≥6.5)	< 316 nM	–	–	–
CCc1c(C#N)c(SC(C(N)=O)c2ccccc2)nc(N2CCOC(CN)C2)c1C#N (centres unmarked) [Example 562, 2-((6-(2-(aminomethyl)morpholino)-3,5-dicyano-4-ethylpyridin-2-yl)thio)-2-phenylacetamide]	D (Category D: ≥6.5)	< 316 nM	–	> 6.5	79.4 nM
CCc1c(C#N)c(SC(C(N)=O)c2ccccc2)nc(N2CCO[C@H](CN)C2)c1C#N (stereo partly drawn) [Example 564, 2-((6-((R)-2-(aminomethyl)morpholino)-3,5-dicyano-4-ethylpyridin-2-yl)thio)-2-phenylacetamide]	D (Category D: ≥6.5)	< 316 nM	–	–	–

Continued, in another order:

DNMT1 BioChemical (pIC50 category) (DNMT1; [2])	EC50 [1]	IC50 (DNMT1; binned activity in either the breaklight or the SPA assay, read-out: DNMT1 BioChemical (pIC50 category) (converted))	Compound	average pIC50 against DNMT1 (DNMT1; breaklight assay and/or SPA assay, repeated experimental runs)	IC50 (DNMT1; breaklight assay and/or SPA assay, repeated experimental runs, read-out: average pIC50 against DNMT1 (converted))
D (Category D: ≥6.5)	< 316 nM	–	CCc1c(C#N)c(SC(C(N)=O)c2ccccc2)nc(N2CCO[C@H](CNCC(C)(C)C)C2)c1C#N (some centres unmarked) [Example 555]	–	–
D (Category D: ≥6.5)	< 316 nM	–	CCc1c(C#N)c(SCc2ccc(N(C)S(C)(=O)=O)cc2)nc(N2CCC(NC(C)C)CC2)c1C#N [Example 556, N-(4-(((3,5-dicyano-4-ethyl-6-(4-(isopropylamino)piperidin-1-yl)pyridin-2-yl)thio)methyl)phenyl)-N-methylmethanesulfonamide]	–	–
D (Category D: ≥6.5)	< 316 nM	–	CCc1c(C#N)c(SCc2ccc(N(C)S(C)(=O)=O)cc2)nc(N2CCC(NCCOC)CC2)c1C#N [Example 557, N-(4-(((3,5-dicyano-4-ethyl-6-(4-((2-methoxyethyl)amino)piperidin-1-yl)pyridin-2-yl)thio)methyl)phenyl)-N-methylmethanesulfonamide]	–	–
D (Category D: ≥6.5)	< 316 nM	–	CCc1c(C#N)c(SC(C(N)=O)c2ccccc2)nc(N2CCOC(CN(C)C)C2)c1C#N (centres unmarked) [Example 558, 2-((3,5-dicyano-6-(2-((dimethylamino)methyl)morpholino)-4-ethylpyridin-2-yl)thio)-2-phenylacetamide]	–	–
D (Category D: ≥6.5)	< 316 nM	–	CCc1c(C#N)c(SC(C(N)=O)c2ccccc2)nc(N2CCOC(CN(CC)CC)C2)c1C#N (centres unmarked) [Example 559, 2-((3,5-dicyano-6-(2-((diethylamino)methyl)morpholino)-4-ethylpyridin-2-yl)thio)-2-phenylacetamide]	–	–
D (Category D: ≥6.5)	< 316 nM	–	CCc1c(C#N)c(SC(C(N)=O)c2ccccc2)nc(N2CCOC(CN3CCCC3)C2)c1C#N (centres unmarked) [Example 560, 2-((3,5-dicyano-4-ethyl-6-(2-(pyrrolidin-1-ylmethyl)morpholino)pyridin-2-yl)thio)-2-phenylacetamide]	–	–
D (Category D: ≥6.5)	< 316 nM	–	CCc1c(C#N)c(SC(C(N)=O)c2ccccc2)nc(N2CCOC(CNC)C2)c1C#N (centres unmarked) [Example 563, 2-((3,5-dicyano-4-ethyl-6-(2-((methylamino)methyl)morpholino)pyridin-2-yl)thio)-2-phenylacetamide]	–	–
–	< 316 nM	< 316 nM	CCc1c(C#N)c(SC(C(N)=O)c2ccccc2)nc(N2CCCC(CN(C)C)C2)c1C#N (centres unmarked) [Example 565, 2-((3,5-dicyano-6-(3-((dimethylamino)methyl)piperidin-1-yl)-4-ethylpyridin-2-yl)thio)-2-phenylacetamide]	–	–
D (Category D: ≥6.5)	< 316 nM	–	CCc1c(C#N)c(SC(C(N)=O)c2ccccc2)nc(N2CCCC(CNC)C2)c1C#N (centres unmarked) [Example 566, 2-((3,5-dicyano-4-ethyl-6-(3-((methylamino)methyl)piperidin-1-yl)pyridin-2-yl)thio)-2-phenylacetamide]	–	–
D (Category D: ≥6.5)	< 316 nM	–	CCc1c(C#N)c(SC(C(N)=O)c2ccccc2)nc(N2CCO[C@@H](CNCC(C)(C)C)C2)c1C#N (stereo partly drawn) [Example 567, 2-((3,5-dicyano-4-ethyl-6-((S)-2-((neopentylamino)methyl)morpholino)pyridin-2-yl)thio)-2-phenylacetamide]	–	–
D (Category D: ≥6.5)	< 316 nM	–	CCc1c(C#N)c(SC(C(N)=O)c2ccccc2)nc(N2CCC[C@@H](CNCC(C)(C)C)C2)c1C#N (stereo partly drawn) [Example 568, 2-((3,5-dicyano-4-ethyl-6-((S)-3-((neopentylamino)methyl)piperidin-1-yl)pyridin-2-yl)thio)-2-phenylacetamide]	–	–
D (Category D: ≥6.5)	< 316 nM	–	CCc1c(C#N)c(SCc2ccc(N(C)S(C)(=O)=O)cc2)nc(N2CCC(NCC(C)(C)C)CC2)c1C#N [Example 569, N-(4-(((3,5-dicyano-4-ethyl-6-(4-(neopentylamino)piperidin-1-yl)pyridin-2-yl)thio)methyl)phenyl)-N-methylmethanesulfonamide]	–	–
D (Category D: ≥6.5)	< 316 nM	–	CCc1c(C#N)c(SCc2ccc(N(C)S(C)(=O)=O)cc2)nc(N(C)CCN2CCCC2)c1C#N [Example 570, N-(4-(((3,5-dicyano-4-ethyl-6-(methyl(2-(pyrrolidin-1-yl)ethyl)amino)pyridin-2-yl)thio)methyl)phenyl)-N-methylmethanesulfonamide]	–	–
D (Category D: ≥6.5)	< 316 nM	–	CCc1c(C#N)c(SCc2ccc(N(C)S(C)(=O)=O)cc2)nc(N2CCOC(CN(C)C)C2)c1C#N (centres unmarked) [Example 571, N-(4-(((3,5-dicyano-6-(2-((dimethylamino)methyl)morpholino)-4-ethylpyridin-2-yl)thio)methyl)phenyl)-N-methylmethanesulfonamide]	–	–
D (Category D: ≥6.5)	< 316 nM	–	CCc1c(C#N)c(SCc2ccc(N(C)S(C)(=O)=O)cc2)nc(N2CCC(NC(=O)C(C)(C)N)CC2)c1C#N [Example 572, 2-amino-N-(1-(3,5-dicyano-4-ethyl-6-((4-(N-methylmethylsulfonamido)benzyl)thio)pyridin-2-yl)piperidin-4-yl)-2-methylpropanamide]	–	–
D (Category D: ≥6.5)	< 316 nM	–	CCc1c(C#N)c(SCc2ccc(N(C)S(C)(=O)=O)cc2)nc(N2CCC(NC3CC3)CC2)c1C#N [Example 573, N-(4-(((3,5-dicyano-6-(4-(cyclopropylamino)piperidin-1-yl)-4-ethylpyridin-2-yl)thio)methyl)phenyl)-N-methylmethanesulfonamide]	–	–
